The text below walks through data of ChEMBL document CHEMBL1201862, “PubChem BioAssay data set” (2004).

Among the test systems are Hs-578T; SK-MEL-28; SK-MEL-5; HCT-116; A498; OVCAR-8; SNB-19; NCI-H460; SK-OV-3; Malme-3M; EKVX; SK-MEL-2; SF-295; IGROV-1; NCI-H23; M14; HOP-62; HCT-15.
Common to all, as to experiment: inhibition of tumour cell growth, NCI panel, 48 h

Structures are written as SMILES.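 96-well plates; 48 h exposure; 5 concentrations. Endpoints by linear interpolation between flanking doses. Not reached: highest tested concentration assigned. GI50 is the concentration that inhibits growth by half.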 Activity calls are given as the source filed them. Rule as the data show it: active = GI50 up to about 1.1 µM and inactive = higher.

For `COc1ccc2c(c1)CC[C@@H]1[C@@H]2CC[C@]2(C)[C@@H](O)/C(=C/c3ccncc3)C[C@@H]12`, the GI50 is 12.8 µM (inactive) in the assay with Hs-578T; 15.3 µM (inactive) in the assay with SK-MEL-28; 9.75 µM (inactive) in the assay on SK-MEL-5; 11 µM (inactive) in the assay on HCT-116; 17.5 µM (inactive) with A498; 14.4 µM (inactive) with OVCAR-8. In addition, the GI50 with SNB-19 was 18.8 µM (inactive); in the assay on NCI-H460 it was 14.2 µM (inactive); with SK-OV-3, 21.2 µM (inactive); in the assay on Malme-3M it was 12.3 µM (inactive); with EKVX, 18.5 µM (inactive); with SK-MEL-2, 16.3 µM (inactive). Moreover, the GI50 in the assay with SF-295 was 10.5 µM (inactive); in the assay on IGROV-1 it was 14.9 µM (inactive); in the assay with NCI-H23, 12.8 µM (inactive); in the assay with M14, 11.3 µM (inactive); with HOP-62 it was 16.9 µM (inactive); in the assay with HCT-15 it was 6.95 µM.

In the case of `C=CCN(c1cc(OC)c2[nH]c(C(=O)O)c(C)c2c1[N+](=O)[O-])S(C)(=O)=O`, the GI50 in the assay on Hs-578T, with SK-MEL-28, in the assay with SK-MEL-5, with HCT-116, in the assay on A498 and in the assay with OVCAR-8 was > 100 µM (inactive) in each case. In addition, the GI50 was > 100 µM (inactive) in the assay with SNB-19; > 100 µM (inactive) in the assay with NCI-H460; > 100 µM (inactive) with SK-OV-3; 9.79 µM (inactive) with Malme-3M; > 100 µM (inactive) with EKVX; > 100 µM (inactive) in the assay on SK-MEL-2. The GI50 in the assay on SF-295 was > 100 µM (inactive); with IGROV-1, > 100 µM (inactive); in the assay on NCI-H23 it was > 100 µM (inactive); with M14, > 100 µM (inactive); in the assay on HOP-62, > 100 µM (inactive); with HCT-15 it was more than 100 µM.

Consider `CCOC(NC(=O)CC)(C(F)(F)F)C(F)(F)F`, for which the GI50 in the assay with Hs-578T, in the assay on SK-MEL-28, in the assay on SK-MEL-5, in the assay with HCT-116, in the assay with A498 and in the assay with OVCAR-8 was > 100 µM (inactive) each time. Also, the GI50 in the assay with SNB-19, in the assay on NCI-H460, in the assay on SK-OV-3, with Malme-3M, in the assay with EKVX and in the assay with SK-MEL-2 was > 100 µM (inactive) each time. Also, the GI50 with SF-295 was > 100 µM (inactive); in the assay with IGROV-1, > 100 µM (inactive); with NCI-H23, > 100 µM (inactive); in the assay on M14, > 100 µM (inactive); with HOP-62, > 100 µM (inactive); with HCT-15, more than 100 µM.

Take `CCCCCOC(=O)c1cc2cc(CCl)ccc2oc1=O`: the GI50 in the assay on Hs-578T was 7.23 µM (inactive); in the assay on SK-MEL-28, 6.49 µM (inactive); with SK-MEL-5 it was 2.62 µM (inactive); in the assay with HCT-116, 10.1 µM (inactive); in the assay on A498, 2.44 µM (inactive); in the assay on OVCAR-8, 17.9 µM (inactive). For the same compound, the GI50 in the assay on SNB-19 is 18.7 µM (inactive); in the assay on NCI-H460 it was 17.2 µM (inactive); in the assay on SK-OV-3 it was 16.9 µM (inactive); in the assay on Malme-3M it was 0.274 µM (active); in the assay on EKVX, 3.37 µM (inactive); with SK-MEL-2 it was 0.466 µM (active). The GI50 in the assay with SF-295 was 13.7 µM (inactive); with IGROV-1, 10.3 µM (inactive); with NCI-H23, 1.5 µM (inactive); in the assay on M14, 1.51 µM (inactive); with HOP-62, 8.28 µM (inactive); with HCT-15, 3.69 µM.

Turning to `N#CC(/N=N/c1ccccc1)c1nc2ccccc2o1` (stereo not drawn), the GI50 with Hs-578T is 22.3 µM (inactive); in the assay with SK-MEL-28 it was > 100 µM (inactive); in the assay on SK-MEL-5 it was 86.9 µM (inactive); in the assay with HCT-116, 21.7 µM (inactive); in the assay with A498, 76.9 µM (inactive); in the assay on OVCAR-8, 24.5 µM (inactive). Also, the GI50 was 30.7 µM (inactive) in the assay on SNB-19; 96.4 µM (inactive) in the assay on NCI-H460; 23.7 µM (inactive) in the assay with SK-OV-3; 55.8 µM (inactive) with Malme-3M; 20.2 µM (inactive) in the assay with EKVX; 25.4 µM (inactive) in the assay with SK-MEL-2. Besides, the GI50 in the assay on SF-295 was 17.4 µM (inactive); in the assay on IGROV-1 it was 16.1 µM (inactive); with NCI-H23, 18.6 µM (inactive); in the assay on M14, 44.8 µM (inactive); with HOP-62 it was 20.3 µM (inactive); in the assay with HCT-15, more than 100 µM.

`S=C1C(CCCOCc2ccccc2)C2CCCC23CC2(CCN13)OCCS2` (stereo not drawn): the GI50 in the assay with Hs-578T, in the assay with SK-MEL-28, with SK-MEL-5, in the assay with A498, with OVCAR-8 and in the assay on SNB-19 was > 10 µM (inactive) each time. The GI50 in the assay on NCI-H460, in the assay on SK-OV-3, in the assay with Malme-3M, in the assay on EKVX, in the assay with SK-MEL-2 and with SF-295 was > 10 µM (inactive) throughout. The GI50 with IGROV-1 was > 10 µM (inactive); in the assay with NCI-H23, > 10 µM (inactive); with M14, > 10 µM (inactive); in the assay on HOP-62, > 10 µM (inactive); in the assay with HCT-15, more than 10 µM.

For `C=CCn1c(-c2ccc(Cl)cc2)cs/c1=N\c1ccccc1OC`, the GI50 in the assay with Hs-578T was > 100 µM (inactive); with SK-MEL-28, > 47.2 µM (inactive); with SK-MEL-5, 2.31 µM (inactive); in the assay with HCT-116 it was 9.31 µM (inactive); with A498 it was > 100 µM (inactive); in the assay with OVCAR-8 it was 27 µM (inactive). Moreover, the GI50 with SNB-19 was > 95.5 µM (inactive); with NCI-H460 it was 36 µM (inactive); in the assay on SK-OV-3, > 45.2 µM (inactive); in the assay on Malme-3M, 31.1 µM (inactive); in the assay with SK-MEL-2, > 74.3 µM (inactive); in the assay on SF-295, 16.6 µM (inactive). The GI50 is > 100 µM (inactive) in the assay with IGROV-1; 7.67 µM (inactive) in the assay with NCI-H23; 10.1 µM (inactive) in the assay on M14; 48.9 µM (inactive) with HOP-62; 50 µM in the assay with HCT-15.

Turning to `Cc1sc2nc3n(c(=O)c2c1C)N=CN(c1ccc(F)cc1)C3`, the GI50 with Hs-578T was 22.4 µM (inactive); in the assay on SK-MEL-28, > 100 µM (inactive); in the assay on SK-MEL-5, > 100 µM (inactive); in the assay on HCT-116, 23.8 µM (inactive); in the assay on A498 it was 26.9 µM (inactive); in the assay on OVCAR-8, 65.6 µM (inactive). Further, the GI50 is 38 µM (inactive) in the assay on SNB-19; 44.5 µM (inactive) with NCI-H460; 52 µM (inactive) in the assay on SK-OV-3; 25 µM (inactive) with Malme-3M; > 100 µM (inactive) in the assay with EKVX; > 100 µM (inactive) in the assay with SK-MEL-2. Also, the GI50 in the assay with SF-295 is 72.9 µM (inactive); with IGROV-1, 61.9 µM (inactive); with NCI-H23 it was > 100 µM (inactive); in the assay on M14, > 100 µM (inactive); in the assay with HOP-62, 23.8 µM (inactive); with HCT-15, more than 100 µM.

Turning to `CCOC(=O)/C(C(=O)NC(C)C)=C(/N)N1CCOCC1`, the GI50 with Hs-578T, with SK-MEL-28, in the assay with HCT-116, with A498, with OVCAR-8 and in the assay with SNB-19 was > 100 µM (inactive) in each case. Also, the GI50 in the assay with NCI-H460, in the assay with SK-OV-3, with Malme-3M, in the assay with EKVX, in the assay on SK-MEL-2 and in the assay with SF-295 was > 100 µM (inactive) each time. The GI50 in the assay with IGROV-1 was > 100 µM (inactive); in the assay with NCI-H23, > 100 µM (inactive); in the assay with M14 it was > 100 µM (inactive); in the assay with HOP-62, > 100 µM (inactive); in the assay on HCT-15, more than 100 µM.

Take `CCOC(=O)c1ccc(/N=c2/[nH]c3ccccc3s/c2=N/c2ccc(C(=O)OCC)cc2)cc1`: the GI50 in the assay with Hs-578T was 39.5 µM (inactive); in the assay on SK-MEL-28, > 100 µM (inactive); with SK-MEL-5, > 100 µM (inactive); with HCT-116, 53.1 µM (inactive); in the assay on A498, 82 µM (inactive); in the assay on OVCAR-8, 86.7 µM (inactive). The GI50 with SNB-19 is > 100 µM (inactive); with NCI-H460 it was 40.6 µM (inactive); in the assay with SK-OV-3, > 100 µM (inactive); in the assay with Malme-3M, > 100 µM (inactive); in the assay on EKVX, > 100 µM (inactive); with SK-MEL-2, > 100 µM (inactive). Moreover, the GI50 in the assay with SF-295 is 83 µM (inactive); with IGROV-1 it was > 100 µM (inactive); with NCI-H23 it was > 100 µM (inactive); in the assay with HOP-62, > 100 µM (inactive); in the assay with HCT-15, more than 100 µM.

For `C(/C=N/c1ccccc1)=C(/Nc1ccccc1)c1ccc2ccccc2c1`, the GI50 was 2.58 µM (inactive) with Hs-578T; 0.231 µM (active) with SK-MEL-28; 2.63 µM (inactive) in the assay with SK-MEL-5; 1.87 µM (inactive) in the assay with HCT-116; 12.4 µM (inactive) with A498; 3.61 µM (inactive) in the assay on OVCAR-8. Also, the GI50 is 2.29 µM (inactive) in the assay with SNB-19; 2.81 µM (inactive) in the assay with NCI-H460; 2.76 µM (inactive) with SK-OV-3; 1.78 µM (inactive) with Malme-3M; 5.55 µM (inactive) in the assay on SK-MEL-2; 1.47 µM (inactive) in the assay on SF-295. The GI50 in the assay with IGROV-1 is 2.88 µM (inactive); in the assay on NCI-H23, 2.13 µM (inactive); with M14, 1.87 µM (inactive); in the assay with HOP-62 it was 1.82 µM (inactive); in the assay with HCT-15, 1.06 µM.
